Reference: paper PMC12307583 (Scientific Reports, 2025)

What was measured:
PfGrp94 = PfGrp94 (Plasmodium falciparum, UniProt Q8I0V4); details: basal ATPase; used as control protein
PfGrp170 [1] = target: T1, PfGrp170 (Plasmodium falciparum, UniProt C0H5H0); test: biochemical
T1 sequence (C0H5H0 20-932): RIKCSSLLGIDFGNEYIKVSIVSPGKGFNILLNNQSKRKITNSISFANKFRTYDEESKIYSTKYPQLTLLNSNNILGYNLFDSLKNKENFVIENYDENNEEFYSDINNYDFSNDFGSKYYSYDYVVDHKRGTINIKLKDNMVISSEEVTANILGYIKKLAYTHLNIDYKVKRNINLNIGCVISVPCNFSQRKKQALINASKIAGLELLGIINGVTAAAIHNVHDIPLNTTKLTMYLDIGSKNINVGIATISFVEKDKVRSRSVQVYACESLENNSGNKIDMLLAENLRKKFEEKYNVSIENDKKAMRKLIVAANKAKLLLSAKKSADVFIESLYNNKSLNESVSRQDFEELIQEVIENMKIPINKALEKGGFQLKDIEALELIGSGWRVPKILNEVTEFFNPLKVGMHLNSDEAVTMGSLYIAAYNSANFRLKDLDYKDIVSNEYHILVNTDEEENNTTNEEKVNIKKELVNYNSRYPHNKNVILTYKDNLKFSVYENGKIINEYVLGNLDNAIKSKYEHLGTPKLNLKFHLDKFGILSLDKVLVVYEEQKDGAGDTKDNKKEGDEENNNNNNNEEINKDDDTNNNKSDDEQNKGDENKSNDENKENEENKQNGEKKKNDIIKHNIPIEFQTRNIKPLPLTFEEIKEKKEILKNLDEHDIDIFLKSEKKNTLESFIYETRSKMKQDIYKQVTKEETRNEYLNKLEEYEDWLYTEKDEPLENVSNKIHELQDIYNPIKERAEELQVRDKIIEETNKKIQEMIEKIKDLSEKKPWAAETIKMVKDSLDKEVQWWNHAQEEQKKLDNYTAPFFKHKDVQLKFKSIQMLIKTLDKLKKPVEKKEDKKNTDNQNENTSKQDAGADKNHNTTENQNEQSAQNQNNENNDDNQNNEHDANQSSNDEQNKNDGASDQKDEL

PfGrp170 [2] = target: T1, PfGrp170; test: suppression of heat-induced MDH aggregation, light scattering […] nm; format: biochemical; details: 100 µM NECA, 1 µM PfGrp170, MDH (pig heart), 20 mM Tris-HCl pH 7.5, 200 mM NaCl, 5 mM MgCl2, 48 °C; inhibitor of chaperone function

PfGrp94, sequence (Q8I0V4 29-821): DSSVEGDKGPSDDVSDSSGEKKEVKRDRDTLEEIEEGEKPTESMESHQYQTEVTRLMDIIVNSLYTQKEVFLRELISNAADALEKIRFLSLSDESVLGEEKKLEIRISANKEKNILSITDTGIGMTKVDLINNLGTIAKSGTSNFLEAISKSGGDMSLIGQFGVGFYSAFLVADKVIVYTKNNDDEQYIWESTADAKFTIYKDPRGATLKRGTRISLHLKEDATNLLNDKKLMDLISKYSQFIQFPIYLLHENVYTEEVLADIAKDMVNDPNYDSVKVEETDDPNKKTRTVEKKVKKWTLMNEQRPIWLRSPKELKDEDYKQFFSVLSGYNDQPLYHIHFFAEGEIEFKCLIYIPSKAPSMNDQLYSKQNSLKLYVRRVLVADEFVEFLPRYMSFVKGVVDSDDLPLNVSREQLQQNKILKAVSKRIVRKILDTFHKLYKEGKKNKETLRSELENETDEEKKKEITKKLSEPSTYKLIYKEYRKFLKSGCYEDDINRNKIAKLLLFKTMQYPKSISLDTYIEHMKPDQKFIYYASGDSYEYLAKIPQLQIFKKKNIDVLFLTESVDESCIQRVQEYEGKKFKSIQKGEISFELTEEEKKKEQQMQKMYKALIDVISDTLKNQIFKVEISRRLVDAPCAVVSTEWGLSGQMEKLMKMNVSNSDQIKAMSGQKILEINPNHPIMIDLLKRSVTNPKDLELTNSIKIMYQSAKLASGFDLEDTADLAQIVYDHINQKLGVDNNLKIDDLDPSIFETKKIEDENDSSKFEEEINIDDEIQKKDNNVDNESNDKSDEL

Kd (PfGrp170 [1])	SMILES	ATPase activity (PfGrp94)	relative aggregation (PfGrp170 [2])
143 ± 15.6 nM	Nc1ncnc2c1ncn2[C@@H]1O[C@H](COP(=O)(O)OP(=O)(O)OP(=O)(O)O)[C@@H](O)[C@H]1O [ATP]	The basal ATPase activity of PfGrp170 and PfGrp94 as control	
	CCNC(=O)[C@H]1O[C@@H](n2cnc3c(N)ncnc32)[C@H](O)[C@@H]1O [NECA]		higher concentrations of NECA abrogated the chaperone function of PfGrp170
